From ChEMBL document CHEMBL5325461, “Effect of a new squalene synthase inhibitor on an ApoE-/- mouse model of atherosclerosis” (Bioorg Med Chem, 2023)
Activity calls are given as the source filed them. No cut-off for these calls is given here.

Experiments:
Mus musculus [1] = test: Antiatherosclerotic activity in atherogenic western diet fed ApoE-/- C57BL/6 mouse model assessed as effect on HDL/LDL index in plasma at 56 umol/kg, ip administered twice daily for 3.5 months; assay type: functional, organism-based; conditions: dose 56.0 µmol/kg
Mus musculus [2] = test: Antihypercholesterolemic activity in atherogenic western diet fed SKH2 mouse model assessed as increase in HDL level at 56 umol/kg, ip administered twice daily for 3.5 months relative to control; assay type: functional; conditions: dose 56 µmol/kg, 2555 h
Mus musculus [3] = test: Antiatherosclerotic activity in atherogenic western diet fed ApoE-/- C57BL/6 mouse model assessed as reduction in atherosclerosis severity in ascending aorta at 56 umol/kg, ip administered twice daily for 3.5 months by H&E staining based analysis; assay type: functional, organism-based; conditions: dose 56.0 µmol/kg
Mus musculus [4] = test: Antiatherosclerotic activity in atherogenic western diet fed ApoE-/- C57BL/6 mouse model assessed as reduction in atheromatic lesions in aortic arch at 56 umol/kg, ip administered twice daily for 3.5 months by H&E staining based analysis; assay type: functional, organism-based; conditions: dose 56.0 µmol/kg
Mus musculus [5] = test: Antihypercholesterolemic activity in atherogenic western diet fed SKH2 mouse model assessed as decrease in LDL level at 56 umol/kg, ip administered twice daily for 3.5 months relative to control; assay type: functional; design: scale not given: the % may be the effect or the level left; conditions: dose 56 µmol/kg, 2555 h
Mus musculus [6] = test: Antiatherosclerotic activity in atherogenic western diet fed ApoE-/- C57BL/6 mouse model assessed as reduction in atheromatic spots in aortic sinus at 56 umol/kg, ip administered twice daily for 3.5 months by H&E staining based analysis; assay type: functional, organism-based; conditions: dose 56.0 µmol/kg
Mus musculus [7] = test: Antiatherosclerotic activity in atherogenic western diet fed ApoE-/- C57BL/6 mouse model assessed as reduction in lesion area in ascending aorta at 56 umol/kg, ip administered twice daily for 3.5 months by H&E staining based analysis; assay type: functional, organism-based; conditions: dose 56.0 µmol/kg
Mus musculus [8] = test: Antihypercholesterolemic activity in atherogenic western diet fed SKH2 mouse model assessed as decrease in total cholesterol level at 56 umol/kg, ip administered twice daily for 3.5 months relative to control; assay type: functional; design: scale not given: the % may be the effect or the level left; conditions: dose 56 µmol/kg, 2555 h
Mus musculus [9] = test: Antiatherosclerotic activity in atherogenic western diet fed ApoE-/- C57BL/6 mouse model assessed as reduction in atheromatic lesions in aortic sinus at 56 umol/kg, ip administered twice daily for 3.5 months by H&E staining based analysis; assay type: functional, organism-based; conditions: dose 56.0 µmol/kg
[10] = Hepatotoxicity in atherogenic western diet fed ApoE-/- C57BL/6 mouse model assessed as increase in SGPT level at 56 umol/kg, ip administered twice daily for 3.5 months; assay type: toxicity, organism-based; conditions: in vivo, 2555 h, dose 56 µmol/kg
[11] = Hepatotoxicity in atherogenic western diet fed ApoE-/- C57BL/6 mouse model assessed as increase in SGOT level at 56 umol/kg, ip administered twice daily for 3.5 months; assay type: toxicity, organism-based; conditions: in vivo, 2555 h, dose 56 µmol/kg
Mus musculus [12] = test: Antiatherosclerotic activity in atherogenic western diet fed ApoE-/- C57BL/6 mouse model assessed as decrease in total cholesterol level in plasma at 56 umol/kg, ip administered twice daily for 3.5 months relative to control; assay type: functional; design: scale not given: the % may be the effect or the level left; conditions: dose 56 µmol/kg, 2555 h
Mus musculus [13] = test: Antiatherosclerotic activity in atherogenic western diet fed ApoE-/- C57BL/6 mouse model assessed as reduction in atheromatic spots in aortic arch at 56 umol/kg, ip administered twice daily for 3.5 months by H&E staining based analysis; assay type: functional, organism-based; conditions: dose 56.0 µmol/kg
Mus musculus [14] = test: Antiatherosclerotic activity in atherogenic western diet fed ApoE-/- C57BL/6 mouse model assessed as decrease in total cholesterol level in plasma at 56 umol/kg, ip administered twice daily for 3.5 months; assay type: functional, organism-based; conditions: dose 56.0 µmol/kg
Mus musculus [15] = test: Antioxidant activity in atherogenic western diet fed ApoE-/- C57BL/6 mouse model assessed as decrease in MDA level at 56 umol/kg, ip administered twice daily for 3.5 months relative to control; assay type: functional; design: scale not given: the % may be the effect or the level left; conditions: dose 56 µmol/kg, 2555 h
[16] = Hepatotoxicity in atherogenic western diet fed ApoE-/- C57BL/6 mouse model assessed as effect on ALP level at 56 umol/kg, ip administered twice daily for 3.5 months; assay type: toxicity, organism-based; conditions: in vivo, 2555 h, dose 56 µmol/kg
[17] = Hepatotoxicity in atherogenic western diet fed ApoE-/- C57BL/6 mouse model assessed as edema at 56 umol/kg, ip administered twice daily for 3.5 months; assay type: toxicity, organism-based; conditions: in vivo, 2555 h, dose 56 µmol/kg
Mus musculus [18] = test: Antiatherosclerotic activity in atherogenic western diet fed ApoE-/- C57BL/6 mouse model assessed as reduction in fat deposition in ascending aorta at 56 umol/kg, ip administered twice daily for 3.5 months by H&E staining based analysis; assay type: functional, organism-based; conditions: dose 56.0 µmol/kg
[19] = Hepatotoxicity in atherogenic western diet fed ApoE-/- C57BL/6 mouse model assessed as degeneration at 56 umol/kg, ip administered twice daily for 3.5 months; assay type: toxicity, organism-based; conditions: in vivo, 2555 h, dose 56 µmol/kg
Mus musculus [20] = test: Antiatherosclerotic activity in atherogenic western diet fed ApoE-/- C57BL/6 mouse model assessed as decrease in LDL level in plasma at 56 umol/kg, ip administered twice daily for 3.5 months; assay type: functional, organism-based; conditions: dose 56.0 µmol/kg
[21] = Hepatotoxicity in atherogenic western diet fed ApoE-/- C57BL/6 mouse model assessed as effect on GGT level at 56 umol/kg, ip administered twice daily for 3.5 months; assay type: toxicity, organism-based; conditions: in vivo, 2555 h, dose 56 µmol/kg
[22] = Toxicity in western diet fed ApoE-/- C57BL/6 mouse model assessed as weight change at 56 umol/kg, ip administered twice daily for 3.5 months; assay type: organism-based; conditions: in vivo, 2555 h, dose 56 µmol/kg
Mus musculus [23] = test: Antihyperglycemic activity in atherogenic western diet fed ApoE-/- C57BL/6 mouse model assessed as decrease in glucose level at 56 umol/kg, ip administered twice daily for 3.5 months by glucometer analysis relative to control; assay type: functional; design: scale not given: the % may be the effect or the level left; conditions: dose 56 µmol/kg, 2555 h
Mus musculus [24] = test: Antiatherosclerotic activity in atherogenic western diet fed ApoE-/- C57BL/6 mouse model assessed as reduction in area of ascending aorta covered by atheromatic spots/lesions at 56 umol/kg, ip administered twice daily for 3.5 months relative to control; assay type: functional; design: scale not given: the % may be the effect or the level left; conditions: dose 56 µmol/kg, 2555 h
Mus musculus [25] = test: Antiatherosclerotic activity in atherogenic western diet fed ApoE-/- C57BL/6 mouse model assessed as decrease in LDL level in plasma at 56 umol/kg, ip administered twice daily for 3.5 months relative to control; assay type: functional; design: scale not given: the % may be the effect or the level left; conditions: dose 56 µmol/kg, 2555 h
Mus musculus [26] = test: Antiatherosclerotic activity in atherogenic western diet fed ApoE-/- C57BL/6 mouse model assessed as reduction in perimeter of ascending aorta covered by atheromatic spots/lesions at 56 umol/kg, ip administered twice daily for 3.5 months relative to control; assay type: functional; design: scale not given: the % may be the effect or the level left; conditions: dose 56 µmol/kg, 2555 h

Br.CN1CCOC(O)(c2ccc3c(c2)Sc2ccccc2N3)C1 (stereo unspecified)
Activity (Mus musculus [1]): Active
Activity (Mus musculus [2]): >100%
Activity (Mus musculus [3]): Active
Activity (Mus musculus [4]): Active
Activity (Mus musculus [5]): 76%
Activity (Mus musculus [6]): Active
Activity (Mus musculus [7]): Active
Activity (Mus musculus [8]): 53%
Activity (Mus musculus [9]): Active
Activity [10]: Non-Toxic
Activity [11]: Non-Toxic
Activity (Mus musculus [12]): 20%
Activity (Mus musculus [13]): Active
Activity (Mus musculus [14]): Active
Activity (Mus musculus [15]): 41%
Activity [16]: Non-Toxic
Activity [17]: Non-Toxic
Activity (Mus musculus [18]): Active
Activity [19]: Non-Toxic
Activity (Mus musculus [20]): Active
Activity [21]: Non-Toxic
Activity [22]: Non-Toxic
Activity (Mus musculus [23]): 19%
Activity (Mus musculus [24]): 55%
Activity (Mus musculus [25]): 20%
Activity (Mus musculus [26]): 70%
